In patent publication US6737383B1, “Herbicidal oxadiazolidines” (priority 1999, dated 2004):

Columns and labels:
blackgrass = assay: Test B pre/postemergence blackgrass; assay type: in vivo, Alopecurus myosuroides
How it was run: (§1)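 Response is a visual 0-to-10 score relative to untreated plants, where 0 means no effect and 10 means complete control, taken twelve to sixteen days after application. Treatments went onto soil at planting and onto foliage of 1- to 4-leaf plants, using a surfactant-containing non-phytotoxic solvent.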

surinam grass = assay: Test B pre/postemergence surinam grass; assay type: in vivo, Brachiaria decumbens
How it was run: as §1

cocklebur = assay: Test B pre/postemergence cocklebur; assay type: in vivo, Xanthium strumarium
How it was run: as §1

crabgrass = assay: Test B pre/postemergence crabgrass; assay type: in vivo, Digitaria sanguinalis
How it was run: as §1

giant foxtail = assay: Test B pre/postemergence giant foxtail; assay type: in vivo, Setaria faberii
How it was run: as §1

morningglory = assay: Test B pre/postemergence morningglory; assay type: in vivo, Ipomoea hederacea
How it was run: as §1

pigweed = assay: Test B pre/postemergence pigweed; assay type: in vivo, Amaranthus retroflexus
How it was run: as §1

rape = assay: Test B pre/postemergence rape; assay type: in vivo, Brassica napus
How it was run: as §1

sugar beet = assay: Test B pre/postemergence sugar beet; assay type: in vivo, Beta vulgaris
How it was run: as §1

velvetleaf = assay: Test B pre/postemergence velvetleaf; assay type: in vivo, Abutilon theophrasti
How it was run: as §1

wheat = assay: Test B pre/postemergence wheat; assay type: in vivo, Triticum aestivum
How it was run: as §1

wild oat = assay: Test B pre/postemergence wild oat; assay type: in vivo, Avena fatua
How it was run: as §1

purple nutsedge = assay: Test B pre/postemergence purple nutsedge; assay type: in vivo, Cyperus rotundus
How it was run: as §1

rice = assay: Test B flood test rice; assay type: in vivo, Oryza sativa
How it was run: (§2)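 Plants were grown to the 2-leaf stage before treatment with test chemical, then held in a greenhouse for twelve to sixteen days. Injury was visually rated against untreated controls on a 0–10 scale, where 0 is no effect and 10 is complete control.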

smallflower flatsedge = assay: Test B flood test smallflower flatsedge; assay type: in vivo, Cyperus difformis
How it was run: as §2

bamyardgrass = assay: Test B flood test barnyardgrass; assay type: in vivo, Echinochloa crus-galli
How it was run: as §2

[1] = Postemergence, Rate 125 g/ha, scale of 0 to 10 where 0 is no effect and 10 is complete control
[2] = Postemergence, Rate 250 g/ha, scale of 0 to 10, 0 is no effect, 10 is complete control
[3] = Postemergence, Rate 500 g/ha, scale of 0 to 10 where 0 is no effect and 10 is complete control
[4] = Postemergence, Rate 1000 g/ha, scale 0 to 10 (0 no effect, 10 complete control)
[5] = Preemergence, Rate 125 g/ha, scale of 0 to 10 where 0 is no effect and 10 is complete control
[6] = Preemergence, Rate 250 g/ha, scale 0 to 10 (0 no effect, 10 complete control)
[7] = Preemergence, Rate 500 g/ha, scale of 0 to 10 where 0 is no effect and 10 is complete control
[8] = Rate 1000 g/ha, Preemergence, scale 0 to 10 (0 no effect, 10 complete control)
[9] = Pre-emergence, Rate 1000 g/ha, scale 0 to 10 (0 no effect, 10 complete control)
[10] = Rate 125 g/ha, under heading Pre-emergence, flood test species, visual evaluation after twelve to sixteen days
[11] = Rate 250 g/ha, Pre-emergence (flood test species), scale 0 to 10, 0 is no effect, 10 is complete control
[12] = Rate 500 g/ha, Pre-emergence section of Table B, 0 to 10 scale (0 no effect, 10 complete control)

## CCOP(=O)(OCC)C(C)n1c(=O)on(C(=O)N(c2ccc(F)cc2)C(C)C)c1=O (stereo not shown) [Compound 617]
blackgrass; [1]
  Plant response rating, Blackgrass: 0
blackgrass; [2]
  Blackgrass plant response rating: 0
blackgrass; [3]
  Plant response rating, Blackgrass: 0
blackgrass; [4]
  Blackgrass plant response rating: 6
blackgrass; [5]
  Blackgrass plant response rating: 0
blackgrass; [6]
  Plant response rating, Blackgrass: 6
blackgrass; [7]
  Blackgrass plant response rating: 6
blackgrass; [8]
  Plant response rating, Blackgrass: 10
Surinam grass; [1]
  Plant response rating, B. signalgrass: 0
Surinam grass; [2]
  B. signalgrass plant response rating: 0
Surinam grass; [3]
  Plant response rating, B. signalgrass: 0
Surinam grass; [4]
  B. signalgrass plant response rating: 3
Surinam grass; [5]
  B. signalgrass plant response rating: 0
Surinam grass; [6]
  Plant response rating, B. signalgrass: 4
Surinam grass; [7]
  B. signalgrass plant response rating: 5
Surinam grass; [8]
  Plant response rating, B. signalgrass: 8
cocklebur; [1]
  Plant response rating, Cocklebur: 0
cocklebur; [2]
  Cocklebur plant response rating: 0
cocklebur; [3]
  Plant response rating, Cocklebur: 2
cocklebur; [4]
  Cocklebur plant response rating: 3
cocklebur; [5]
  Cocklebur plant response rating: 0
cocklebur; [6]
  Plant response rating, Cocklebur: 0
cocklebur; [7]
  Plant response rating, Cocklebur: 0
cocklebur; [8]
  Plant response rating, Cocklebur: 0
crabgrass; [1]
  Plant response rating, Crabgrass: 0
crabgrass; [2]
  Crabgrass plant response rating: 2
crabgrass; [3]
  Plant response rating, Crabgrass: 0
crabgrass; [4]
  Crabgrass plant response rating: 7
crabgrass; [6]
  Plant response rating, Crabgrass: 5
crabgrass; [7]
  Plant response rating, Crabgrass: 8
crabgrass; [8]
  Plant response rating, Crabgrass: 8
Giant foxtail; [1]
  Plant response rating, Giant foxtail: 0
Giant foxtail; [2]
  Giant foxtail plant response rating: 4
Giant foxtail; [3]
  Plant response rating, Giant foxtail: 0
Giant foxtail; [4]
  Giant foxtail plant response rating: 6
Giant foxtail; [5]
  Giant foxtail plant response rating: 9
Giant foxtail; [6]
  Plant response rating, Giant foxtail: 9
Giant foxtail; [7]
  Plant response rating, Giant foxtail: 9
Giant foxtail; [8]
  Plant response rating, Giant foxtail: 10
morningglory; [1]
  Plant response rating, Morningglory: 0
morningglory; [2]
  Morningglory plant response rating: 0
morningglory; [3]
  Plant response rating, Morningglory: 3
morningglory; [4]
  Morningglory plant response rating: 6
morningglory; [5]
  Morningglory plant response rating: 0
morningglory; [6]
  Plant response rating, Morningglory: 0
morningglory; [7]
  Plant response rating, Morningglory: 0
morningglory; [8]
  Plant response rating, Morningglory: 0
pigweed; [1]
  Plant response rating, Redroot pigweed: 0
pigweed; [2]
  Redroot pigweed plant response rating: 0
pigweed; [4]
  Redroot pigweed plant response rating: 0
pigweed; [5]
  Redroot pigweed plant response rating: 0
pigweed; [6]
  Plant response rating, Redroot pigweed: 0
pigweed; [7]
  Plant response rating, Redroot pigweed: 0
pigweed; [8]
  Plant response rating, Redroot pigweed: 0
rape; [1]
  Plant response rating, Rape: 0
rape; [2]
  Rape plant response rating: 0
rape; [3]
  Plant response rating, Rape: 0
rape; [4]
  Rape plant response rating: 0
rape; [5]
  Rape plant response rating: 0
rape; [6]
  Plant response rating, Rape: 0
rape; [7]
  Plant response rating, Rape: 0
rape; [8]
  Plant response rating, Rape: 0
Sugar beet; [1]
  Plant response rating, Sugarbeets: 0
Sugar beet; [2]
  Sugarbeets plant response rating: 0
Sugar beet; [4]
  Sugarbeets plant response rating: 0
Sugar beet; [5]
  Sugarbeets plant response rating: 0
Sugar beet; [6]
  Plant response rating, Sugarbeets: 0
Sugar beet; [7]
  Plant response rating, Sugarbeets: 0
Sugar beet; [8]
  Plant response rating, Sugarbeets: 0
velvetleaf; [1]
  Plant response rating, Velvetleaf: 0
velvetleaf; [2]
  Velvetleaf plant response rating: 0
velvetleaf; [4]
  Velvetleaf plant response rating: 2
velvetleaf; [5]
  Velvetleaf plant response rating: 0
velvetleaf; [6]
  Plant response rating, Velvetleaf: 0
velvetleaf; [7]
  Plant response rating, Velvetleaf: 0
velvetleaf; [8]
  Plant response rating, Velvetleaf: 0
wheat; [1]
  Plant response rating, Wheat: 0
wheat; [2]
  Wheat plant response rating: 0
wheat; [4]
  Wheat plant response rating: 0
wheat; [5]
  Wheat plant response rating: 0
wheat; [6]
  Plant response rating, Wheat: 0
wheat; [7]
  Plant response rating, Wheat: 0
wheat; [8]
  Plant response rating, Wheat: 2
Wild oat; [1]
  Plant response rating, Wild oats: 0
Wild oat; [2]
  Wild oats plant response rating: 0
Wild oat; [4]
  Wild oats plant response rating: 0
Wild oat; [5]
  Wild oats plant response rating: 0
Wild oat; [6]
  Plant response rating, Wild oats: 2
Wild oat; [7]
  Plant response rating, Wild oats: 3
Wild oat; [8]
  Plant response rating, Wild oats: 9
Purple nutsedge; [1]
  Plant response rating, Nutsedge: 0
Purple nutsedge; [3]
  Plant response rating, Nutsedge: 0
Purple nutsedge; [4]
  Nutsedge plant response rating: 0
Purple nutsedge; [5]
  Nutsedge plant response rating: 0
Purple nutsedge; [6]
  Plant response rating, Nutsedge: 0
Purple nutsedge; [7]
  Plant response rating, Nutsedge: 5
Purple nutsedge; [8]
  Plant response rating, Nutsedge: 8
rice; [9]
  Rice plant response rating: 0
rice; [10]
  Rice plant response rating (0 to 10 scale, 0 is no effect, 10 is complete control): 0
rice; [11]
  Rice plant response rating: 0
rice; [12]
  Rice plant response rating: 0
Smallflower flatsedge; [9]
  S. Flatsedge plant response rating: 0
Smallflower flatsedge; [10]
  S. Flatsedge plant response rating (0 to 10 scale, 0 is no effect, 10 is complete control): 0
Smallflower flatsedge; [11]
  S. Flatsedge plant response rating: 0
Smallflower flatsedge; [12]
  S. Flatsedge plant response rating: 0
bamyardgrass; [9]
  Barnyardgrass plant response rating: 0
bamyardgrass; [10]
  Barnyardgrass plant response rating (0 to 10 scale, 0 is no effect, 10 is complete control): 0
bamyardgrass; [11]
  Barnyardgrass plant response rating: 0
bamyardgrass; [12]
  Barnyardgrass plant response rating: 0
